In patent publication US20160223562A1, “Method for Determining the Concentration of a Peptide” (JPT Peptide Technologies GmbH, priority 2010, published 2016):
Square brackets hold non-standard residues; d marks the D form. Peptide text beside a SMILES is read from it. Tyr(3-NO2) = N[C@@H](Cc1ccc(O)c([N+](=O)[O-])c1)C(=O)O

What was measured:
[1] = target: T1, Trypsin (Sus scrofa, UniProt P00761); test: Trypsin cleavage of C-terminal quantification tag -SA-nitroTyr-G from peptides, LC-MS with UV detection at 350 nm; type: biochemical; conditions: after reduction and alkylation, trypsin enzyme/substrate 1:50 over night at RT
T1 construct: purchased Promega Corporation V511
T1 sequence (P00761 9-231): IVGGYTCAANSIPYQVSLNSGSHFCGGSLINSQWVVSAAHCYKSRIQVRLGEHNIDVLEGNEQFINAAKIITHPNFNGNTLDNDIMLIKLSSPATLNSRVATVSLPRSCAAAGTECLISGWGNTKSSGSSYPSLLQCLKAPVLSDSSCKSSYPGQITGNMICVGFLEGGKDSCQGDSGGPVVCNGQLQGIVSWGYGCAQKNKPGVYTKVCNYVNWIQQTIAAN
Description: 23 peptides carrying the C-terminal quantification-tag-SA-nitroTyr-G-OH (SEQ ID NO:2) were synthesized by Fmoc-based solid phase peptide synthesis and purified by HPLC. Each peptide was subjected to the following trypsin cleavage protocol:
(§1) Trypsin Activation: Trypsin (20 μg, sequencing grade modified trypsin, Promega Corporation, Madison, Wis., USA, catalogue no. V511, specific activity 16.965 u/mg) was dissolved in Trypsin resuspension buffer (200 μL, Promega, catalogue no. V542A, ingredient 50 mM acetic acid) and incubated for 15 min at 37° C.
(§2) Reduction and alkylation: The peptide (approx. 0.05 mg) was dissolved in 1 M urea and 100 mM fresh ammonium hydrogen carbonate (300 μL). TCEP (Tris(2-carboxyethyl) phosphine hydrochloride, 0.2 M, 7.5 μL, final concentration 5 mM) was added and the solution incubated at 37° C. for 1 h. After addition of iodoacetamide (0.5 M, 6.0 μL, final concentration 10 mM) the solution was incubated at RT in the dark for another 30 min. Digestion: The sample was digested with activated Trypsin solution (10 μL per well, 1.0 μg, resulting enzyme/substrate ratio 1:50) over night at RT. To stop the digestion, HCl (2 M, 8 μL final concentration 50 mM) and TFA (3.2 μL, final concentration 1%, pH<2) were added. Finally, the sample was analyzed by LC-MS at 350 nm.

[2] = target: T1, Trypsin; test: Trypsin cleavage of N-terminal quantification tag Ac-nitroTyr-SGK- from peptides, LC-MS with UV detection at 350 nm; type: biochemical; conditions: trypsin protocol of example 9, 24 h, RT
Description: as §1, §2
38 peptides carrying the N-terminal quantification-tag Ac-nitroTyr-SGK-(SEQ ID NO:32) were synthesized by SPOT synthesis (Table 3). The peptide sequences are based on two different amino acid sequences, which in each case contain 19 different amino acids N-terminally attached to lysine (the 20 naturally occurring amino acids except cysteine).
All peptides were subjected to the same trypsin cleavage protocol as described in example 9. It is apparent that the quantification tag is efficiently cleaved (>99%) in nearly all cases.

| Molecule | Percent Cleavage of Tag [by UV at 350 nm] [1] [%] | Kusebauch 24 h, RT: Percent Cleavage of Tag [by UV350 - Peptide-Tag vs. Tag] [2] [%] |
| --- | --- | --- |
| CC[C@H](C)[C@H](NC(=O)[C@H](Cc1ccccc1)NC(=O)[C@H](Cc1ccc(O)cc1)NC(=O)[C@H](Cc1c[nH]cn1)NC(=O)[C@@H](NC(=O)[C@H](Cc1c[nH]c2ccccc12)NC(=O)[C@H](CCCCN)NC(=O)CNC(=O)[C@H](CO)NC(=O)[C@H](Cc1ccc(O)c([N+](=O)[O-])c1)NC(C)=O)[C@@H](C)O)C(=O)N[C@@H](CC(=O)O)C(=O)N[C@@H](CC(C)C)C(=O)N[C@@H](CC(N)=O)C(=O)N[C@@H](CCCCN)C(=O)O [Peptide 19, Ac-nitroTyr-SGKWTHYFIDLN-K-OH] (Ac-[Tyr(3-NO2)]SGKWTHYFIDLNK-OH) | 100 | 100.0 |
| CC(=O)N[C@@H](Cc1ccc(O)c([N+](=O)[O-])c1)C(=O)N[C@@H](CO)C(=O)NCC(=O)N[C@@H](CCCCN)C(=O)N[C@@H](C)C(=O)N[C@H](C(=O)N[C@@H](C)C(=O)N[C@@H](CC(C)C)C(=O)N[C@@H](CO)C(=O)N[C@@H](CC(C)C)C(=O)N[C@@H](CC(=O)O)C(=O)N[C@@H](CC(=O)O)C(=O)N[C@H](C(=O)N[C@@H](CCCCN)C(=O)O)C(C)C)C(C)C [Peptide 21, Ac-nitroTyr-SGKAVALSLDDV-K-OH] (Ac-[Tyr(3-NO2)]SGKAVALSLDDVK-OH) | 100 | 100.0 |
| Ac-nitroTyr-SGKHTHYFIDLN-K-OH (Ac-[Tyr(3-NO2)]SGKHTHYFIDLNK-OH; SMILES CC[C@H](C)[C@H](NC(=O)[C@H](Cc1ccccc1)NC(=O)[C@H](Cc1ccc(O)cc1)NC(=O)[C@H](Cc1c[nH]cn1)NC(=O)[C@@H](NC(=O)[C@H](Cc1c[nH]cn1)NC(=O)[C@H](CCCCN)NC(=O)CNC(=O)[C@H](CO)NC(=O)[C@H](Cc1ccc(O)c([N+](=O)[O-])c1)NC(C)=O)[C@@H](C)O)C(=O)N[C@@H](CC(=O)O)C(=O)N[C@@H](CC(C)C)C(=O)N[C@@H](CC(N)=O)C(=O)N[C@@H](CCCCN)C(=O)O) [Peptide 7] | 100 | 100.0 |

Other lines, results leading:

| Percent Cleavage of Tag [by UV at 350 nm] [1] [%] | Kusebauch 24 h, RT: Percent Cleavage of Tag [by UV350 - Peptide-Tag vs. Tag] [2] [%] | Molecule |
| --- | --- | --- |
| 100 | 100.0 | CC[C@H](C)[C@H](NC(=O)[C@H](Cc1ccccc1)NC(=O)[C@H](Cc1ccc(O)cc1)NC(=O)[C@H](Cc1c[nH]cn1)NC(=O)[C@@H](NC(=O)[C@@H](NC(=O)[C@H](CCCCN)NC(=O)CNC(=O)[C@H](CO)NC(=O)[C@H](Cc1ccc(O)c([N+](=O)[O-])c1)NC(C)=O)C(C)C)[C@@H](C)O)C(=O)N[C@@H](CC(=O)O)C(=O)N[C@@H](CC(C)C)C(=O)N[C@@H](CC(N)=O)C(=O)N[C@@H](CCCCN)C(=O)O [Peptide 18, Ac-nitroTyr-SGKVTHYFIDLN-K-OH] (Ac-[Tyr(3-NO2)]SGKVTHYFIDLNK-OH) |
| 100 | 100.0 | CC[C@H](C)[C@H](NC(=O)[C@H](Cc1ccccc1)NC(=O)[C@H](Cc1ccc(O)cc1)NC(=O)[C@H](Cc1c[nH]cn1)NC(=O)[C@@H](NC(=O)[C@@H](NC(=O)[C@H](CCCCN)NC(=O)CNC(=O)[C@H](CO)NC(=O)[C@H](Cc1ccc(O)c([N+](=O)[O-])c1)NC(C)=O)[C@@H](C)CC)[C@@H](C)O)C(=O)N[C@@H](CC(=O)O)C(=O)N[C@@H](CC(C)C)C(=O)N[C@@H](CC(N)=O)C(=O)N[C@@H](CCCCN)C(=O)O [Peptide 8, Ac-nitroTyr-SGKITHYFIDLN-K-OH] (Ac-[Tyr(3-NO2)]SGKITHYFIDLNK-OH) |
